# In US6875760B2 (Novo Nordisk A/S, priority 1999, dated 2005):
# Target: T1, human glucagon receptor (Homo sapiens, UniProt P47871)
# T1 construct: expressed in transfected cells; host or cells: BHK (baby hamster kidney) cells
# Assay: Glucagon Binding Assay (III)
# Settings: BHK cell membranes, WGA SPA beads, 125I-glucagon; read-out: Glu Bd Assay (III) IC50
# How it was run: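 Membranes from BHK cells transfected with the human receptor, prepared at 4 °C, were used in a WGA-bead scintillation proximity binding format. Plates were shaken for 4 hours, left to settle 8–48 hours and then counted. Non-specific binding was defined with 500 nM glucagon.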
# T1 sequence (P47871 26-477): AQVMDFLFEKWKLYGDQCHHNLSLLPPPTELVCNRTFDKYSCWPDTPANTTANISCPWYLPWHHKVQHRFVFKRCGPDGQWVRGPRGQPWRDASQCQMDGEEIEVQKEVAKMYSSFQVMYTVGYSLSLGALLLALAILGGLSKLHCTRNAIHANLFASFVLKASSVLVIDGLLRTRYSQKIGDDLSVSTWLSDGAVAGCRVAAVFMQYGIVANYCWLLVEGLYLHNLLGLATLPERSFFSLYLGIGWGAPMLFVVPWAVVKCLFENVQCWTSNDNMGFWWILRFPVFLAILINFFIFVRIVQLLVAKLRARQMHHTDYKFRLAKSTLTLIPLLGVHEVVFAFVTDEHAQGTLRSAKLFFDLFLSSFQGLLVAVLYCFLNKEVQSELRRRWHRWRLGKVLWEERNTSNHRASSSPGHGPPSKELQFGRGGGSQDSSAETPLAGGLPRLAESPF
row,SMILES,IC50
1,Cn1nnc(-c2cccc(NC(=O)N(Cc3ccc(C(=O)Nc4nn[nH]n4)cc3)c3ccc(C4CCCCC4)cc3)c2)n1 [Example 371],52 nM
2,"O=C(O)CCNC(=O)c1ccc(CN(C(=O)Oc2cc(C(F)(F)F)cc(C(F)(F)F)c2)c2ccc(C3CCCCC3)cc2)cc1 [Example 419, 3-(-4-{[(3,5-Bis(trifluoromethyl)phenoxycarbonyl)-(4-cyclohexylphenyl)amino]methyl}benzoylamino)propionic acid]",482 nM
3,CC(C)(C)c1ccc(N(Cc2ccc(C(=O)Nc3nn[nH]n3)cc2)C(=O)Oc2cc(C(F)(F)F)cc(C(F)(F)F)c2)cc1 [Example 406],751 nM
4,"O=C(O)CCNC(=O)c1ccc(CN(C(=O)c2cc(F)cc(C(F)(F)F)c2)C2CCC3(CCCCC3)CC2)cc1 [Example 618, 3-(4-{[(3-Fluoro-5-trifluoromethylbenzoyl)spiro[5.5]undec-3-yl-amino]methyl}benzoylamino)propionic acid]",1070 nM
5,"O=C(O)CCNC(=O)c1ccc(CN(C(=O)c2cc(-c3ccc(Cl)cc3)cs2)c2ccc(C3CCCCC3)cc2)cc1 [Example 560, 3-(4-{[[4-(4-Chlorophenyl)thiophene-2-carbonyl]-(4-cyclohexylphenyl)amino]methyl}benzoylamino)propionic acid]",1550 nM
6,"CC(C)(C)C1CCC(N(Cc2ccc(C(=O)NCCC(=O)O)cc2)NC(=O)c2ccc(OC(F)(F)F)cc2)CC1 (stereo not drawn) [Example 424, 3-{4-[N-(4-tert-Butylcyclohexyl)-N′-(4-trifluoromethoxybenzoyl)hydrazinomethyl]benzoylamino}propionic acid]",61 nM
7,"CC(C)(C)C1CCC(N(Cc2ccc(C(=O)Nc3nn[nH]n3)cc2)C(=O)/C=C/c2cccc(Cl)c2)CC1 (stereo not drawn) [Example 551, 4-({(4-tert-Butylcyclohexyl)-[3-(3-chlorophenyl)acroloyl]amino}methyl)-N-(2H-tetrazol-5-yl)benzamide]",136 nM
8,"O=C(Nc1nn[nH]n1)c1ccc(CN(C(=O)NCc2ccccc2OC(F)(F)F)c2ccc(C3CCCCC3)cc2)cc1 [Example 348, 4-[1-(4-Cyclohexylphenyl)-3-(2-trifluoromethoxybenzyl)ureidomethyl]-N-(2H-tetrazol-5-yl)benzamide]",73 nM
9,"CCCCC(CC)CN(Cc1ccc(C(=O)NCCC(=O)O)cc1)C(=O)Nc1cccc(C(F)(F)F)c1 (stereo not drawn) [Example 21, 3-{4-[1-(2-Ethylhexyl)-3-(3-trifluoromethylphenyl)ureidomethyl]benzoylamino}propionic acid]",1500 nM
10,"CC(C)Cc1ccc(C(=O)N(Cc2ccc(C(=O)Nc3nn[nH]n3)cc2)C2CCC(C(C)(C)C)CC2)cc1 (stereo not drawn) [Example 511, 4-{[(4-tert-Butylcyclohexyl)-(4-isobutylbenzoyl)amino]methyl}-N-(2H-tetrazol-5-yl)benzamide]",58 nM
11,"CCCCC(CC)CN(Cc1ccc(C(=O)NCCC(=O)O)cc1)C(=O)Nc1ccc(SC)cc1 (stereo not drawn) [Example 41, 3-{4-[1-(2-Ethylhexyl)-3-(4-methylsulfanylphenyl)ureidomethyl]benzoylamino}propionic acid]",299 nM
12,"CS(=O)(=O)c1cc(NC(=O)N(Cc2ccc(C(=O)Nc3nn[nH]n3)cc2)c2ccc(C3CCCCC3)cc2)ccc1OC(F)(F)F [Example 314, 4-[1-(4-Cyclohexylphenyl)-3-(3-methylsulfonyl-4-trifluoromethoxyphenyl)ureidomethyl]-N-(2H-tetrazol-5-yl)benzamide]",62 nM
13,"CC(C)(C)c1ccc(N(Cc2ccc(C(=O)Nc3nn[nH]n3)cc2)C(=O)/C=C/c2c(Cl)cccc2Cl)cc1 [Example 479, 4-({(4-tert-butylphenyl)-[3-(2,6-dichlorophenyl)acryloyl]amino}methyl)-N-(2H-tetrazol-5-yl)benzamide]",819 nM
14,"CNC(=O)c1cccc(NC(=O)N(Cc2ccc(C(=O)Nc3nn[nH]n3)cc2)c2ccc(C(C)(C)C)cc2)c1 [Example 458, N-Methyl-3-{3-(4-tert-butylphenyl)-3-[4-(2H-tetrazol-5-ylcarbamoyl)benzyl]ureido}benzamide]",1810 nM
15,"Cn1nnc(-c2cccc(NC(=O)N(Cc3ccc(C(=O)Nc4nn[nH]n4)cc3)c3ccc(C(C)(C)C)cc3)c2)n1 [Example 370, 4-{1-(4-tert-Butylphenyl)-3-[3-(2-methyl-2H-tetrazol-5-yl)phenyl]ureidomethyl}-N-(2H-5-yl)benzamide]",87 nM
16,"O=C(O)CCNC(=O)c1ccc(CN(C(=O)Nc2cc(Br)cc(C(F)(F)F)c2)[C@H]2CC[C@H](C3CCCCC3)CC2)cc1 [Example 393, 3-{4-[1-(trans-4-Cyclohexylcyclohexyl)-3-(3-bromo-5-trifluoromethylphenyl)ureidomethyl]benzoylamino}propionic acid]",17 nM
17,"CCCCN1C(=O)c2ccc(NC(=O)N(Cc3ccc(C(=O)NCCC(=O)O)cc3)C3CCC(C(C)(C)C)CC3)cc2C1=O (stereo not drawn) [Example 637, 3-{4-[1-(4-tert-Butylcyclohexyl)-3-(N′-butylphthalimid-4-yl)ureidomethyl]benzoylamino}propionic acid]",116 nM
18,"CC(C)c1ccc(NC(=O)N(Cc2ccc(C(=O)NCCC(=O)O)cc2)C2CC3CC(C2C)C3(C)C)cc1 (stereo not drawn) [Example 66, 3-{4-[3-(4-Isopropylphenyl)-1-(2,6,6-trimethylbicyclo[3.1.1]hept-3-yl)ureidomethyl]benzoylamino}propionic acid]",267 nM
19,"CS(=O)(=O)c1ccc2nc(NC(=O)N(Cc3ccc(C(=O)Nc4nn[nH]n4)cc3)c3ccc(C4CCCCC4)cc3)sc2c1 [Example 616, 4-[1-(4-Cyclohexylphenyl)-3-(6-methylsulfonylbenzothiazol-2-yl)ureidomethyl]-N-(2H-tetrazol-5-yl)benzamide]",745 nM
20,"CC(=O)c1cccc(NC(=O)N(Cc2ccc(C(=O)Nc3nn[nH]n3)cc2)c2ccc(C3CCCCC3)cc2)c1 [Example 283, 4-[3-(3-Acetylphenyl)-1-(4-cyclohexylphenyl)ureidomethyl]-N-(2H-tetrazol-5-yl)benzamide]",57 nM
21,"O=C(O)CCNC(=O)c1ccc(CN(C(=O)c2cc3cc(Cl)ccc3o2)c2ccc(C3CCCCC3)cc2)cc1 [Example 561, 3-(4-{[(5-Chlorobenzofuran-2-carbonyl)-(4-cyclohexylphenyl)amino]methyl}benzoylamino)propionic acid]",372 nM
22,"O=C(Nc1nn[nH]n1)c1ccc(CN(C(=O)Nc2ccc(Cl)c(Cl)c2)c2ccc(C3CCCCC3)cc2)cc1 [Example 346, 4-[1-(4-Cyclohexylphenyl)-3-(3,4-dichlorophenyl)ureidomethyl]-N-(2H-tetrazol-5-yl)benzamide]",25 nM

# The next lines start with the values.
row,IC50,SMILES
1,1410 nM,"CCS(=O)(=O)c1cccc(NC(=O)N(Cc2ccc(C(=O)Nc3nn[nH]n3)cc2)c2ccc(OC(F)(F)F)cc2)c1 [Example 452, 4-[3-(3-Ethylsulfonylphenyl)-1-(4-trifluoromethoxyphenyl)ureidomethyl]-N-(2H-tetrazol-5-yl)benzamide]"
2,684 nM,"CC(C)(C)c1ccc(N(Cc2ccc(C(=O)Nc3nn[nH]n3)cc2)C(=O)Nc2ccc3ncsc3c2)cc1 [Example 257, 4-[3-Benzothiazol-6-yl-1-(4-tert-butylphenyl)ureidomethyl]-N-(2H-tetrazol-5-yl)benzamide]"
3,302 nM,"CSc1cccc(O)c1C(=O)N(Cc1ccc(C(=O)Nc2nn[nH]n2)cc1)c1ccc(C2CCCCC2)cc1 [Example 482, 4-{[(4-Cyclohexylphenyl)-(2-hydroxy-6-methylsulfanylbenzoyl)amino]methyl}-N-(2H-tetrazol-5-yl)benzamide]"
4,264 nM,"CC(Oc1ccc(Cl)cc1)C(=O)N(Cc1ccc(C(=O)Nc2nn[nH]n2)cc1)c1ccc(C2CCCCC2)cc1 (stereo not drawn) [Example 491, 4-{[[2-(4-Chlorophenoxy)propionyl]-(4-cyclohexylphenyl)amino]methyl}-N-(2H-tetrazol-5-yl)benzamide]"
5,201 nM,"O=C(O)CCNC(=O)c1ccc(CN(CCc2ccc(Cl)c(Cl)c2)C(=O)Nc2ccc(OC(F)(F)F)cc2)cc1 [Example 19, 3-{4-[1-[2-(3,4-Dichlorophenyl)ethyl]-3-(4-trifluoromethoxyphenyl)ureidomethyl]benzoylamino}propionic acid]"
6,183 nM,"CC1C(N(Cc2ccc(C(=O)NCCC(=O)O)cc2)C(=O)Nc2ccc(OC(F)(F)F)cc2)CC2CC1C2(C)C (stereo not drawn) [Example 65, 3-{4-[3-(4-Trifluoromethoxyphenyl)-1-(2,6,6-trimethylbicyclo[3.1.1]hept-3-yl)ureidomethyl]benzoylamino}propionic acid]"
7,149 nM,"CS(=O)(=O)c1ccc(F)c(NC(=O)N(Cc2ccc(C(=O)Nc3nn[nH]n3)cc2)c2ccc(C3CCCCC3)cc2)c1 [Example 260, 4-[1-(4-Cyclohexylphenyl)-3-(2-fluoro-5-methylsulfonylphenyl)ureidomethyl]-N-(2H-tetrazol-5-yl)benzamide]"
8,120 nM,"O=C(Nc1nn[nH]n1)c1ccc(CN(C(=O)NCc2cc(Cl)cc(Cl)c2)c2ccc(C3CCCCC3)cc2)cc1 [Example 397, 4-[1-(4-Cyclohexylphenyl)-3-(3,5-dichlorobenzyl)ureidomethyl]-N-(2H-tetrazol-5-yl)benzamide]"
9,88 nM,"O=C(Nc1nn[nH]n1)c1ccc(CN(C(=O)Nc2cccc(SC(F)(F)F)c2)c2ccc(C3CCCCC3)cc2)cc1 [Example 278, 4-[1-(4-Cyclohexylphenyl)-3-(3-trifluoromethylsulfanylphenyl)ureidomethyl]-N-(2H-tetrazol-5-yl)benzamide]"
10,56 nM,"CC(C)(C)[C@H]1CC[C@H](N(Cc2ccc(C(=O)NCCC(=O)O)cc2)C(=O)Nc2ccc(OC(F)(F)F)c(C#N)c2)CC1 [Example 251, 3-{4-[1-(trans-4-tert-Butylcyclohexyl)-3-(3-cyano-4-trifluoromethoxyphenyl)ureidomethyl]benzoylamino}propionic acid]"

# Same assay, conditions: value printed in the text of Example 315; read-out: Glu bd assay III
row,IC50,SMILES
1,22 nM,"CS(=O)(=O)c1cc(NC(=O)N(Cc2ccc(C(=O)Nc3nn[nH]n3)cc2)c2ccc(C3=CCCCC3)cc2)ccc1OC(F)(F)F [Example 315, 4-[1-(4-Cyclohex-1-enylphenyl)-3-(3-methylsulfonyl-4-trifluoromethoxyphenyl)ureidomethyl]-N-(2H-tetrazol-5-yl)benzamide]"
